Test results published in patent US20230184749A1, “DRUG RANKING METHOD AND SYSTEM, COMPARISON METHOD FOR DRUG RANKING METHOD AND NEW USE OF DRUG SELECTED USING THE SAME” (National Tsing Hua University, priority 2021, published 2023).
Where two headings read alike, the source gives them in different places.

Tested on: SARS-CoV-2
Assay: Plaque assay, anti-SARS-CoV-2 activity in Vero E6 cells
Format: cell-based, SARS-CoV-2 (hCoV-19/Taiwan/NTU13/2020)
Details: for average percentage of suppression of SARS-CoV-2 replication / plaque reduction compared to the negative control groups (FIG. 13): Vero E6 cells; for average percentage of suppression of SARS-CoV-2 replication: 5 days of incubation; for EC50: Severe acute respiratory syndrome coronavirus 2, Vero C1008, read-out: EC50 (minimal concentration required to reduce 50% of plaque count); for plaque reduction compared to the negative control groups (FIG. 13): at least 10 μM

CC(Cc1ccc(O)cc1)NCC(O)c1cc(O)cc(O)c1 (stereo not shown) [Fenoterol, 5-[1-hydroxy-2-[1-(4-hydroxyphenyl)propan-2-ylamino]ethyl]benzene-1,3-diol] was tested, and the “average percentage of suppression of SARS-CoV-2 replication” value (“average percentage” for short) (10 μM) was 17.0%, the “average percentage” value (40 μM) was 68.9% and the EC50 was 30 µM. The “plaque reduction compared to the negative control groups (FIG. 13)” value was “effective in suppressing SARS-CoV-2 replication”.
For CCCCCN=C(N)N/N=C/c1c[nH]c2ccc(OC)cc12 [Tegaserod, 1-[(E)-(5-methoxy-1H-indol-3-yl)methylideneamino]-2-pentylguanidine], the “average percentage” value (10 μM) was 54.3%, the EC50 (SARS-CoV-2 infected Vero E6 cells, regression analysis of dose-response curves) was < 10 µM and the “plaque reduction compared to the negative control groups (FIG. 13)” value was “effective in suppression SARS-CoV-2 replication”.
